# Experiments:
# [1] = test system: Tyrosine-protein kinase ABL1 (Homo sapiens), P00519 [E255K]; test: Binding affinity to human phosphorylated ABL1 E255K mutant (S229 to K512 residues) expressed in mammalian expression system assessed as residual binding level at 10 uM by Kinomescan method relative to control
# [2] = target: Ephrin type-A receptor 5 (Homo sapiens) (UniProt P54756); test: Binding affinity to wild-type human partial length EPHA5 (T627 to V930 residues) expressed in bacterial expression system assessed as residual binding level at 10 uM by Kinomescan method relative to control
# [3] = target: Receptor tyrosine-protein kinase erbB-4 (Homo sapiens) (UniProt Q15303); test: Binding affinity to wild-type human partial length ERBB4 (L690 to K994 residues) expressed in bacterial expression system assessed as residual binding level at 10 uM by Kinomescan method relative to control
# [4] = target: Tyrosine-protein kinase FRK (Homo sapiens) (UniProt P42685); test: Binding affinity to wild-type human partial length FRK (A215 to F503 residues) expressed in bacterial expression system assessed as residual binding level at 10 uM by Kinomescan method relative to control
# [5] = target: Inhibitor of nuclear factor kappa-B kinase subunit beta (Homo sapiens) (UniProt O14920); test: Binding affinity to wild-type human full length IKK-beta (M1 to S756 residues) expressed in mammalian expression system assessed as residual binding level at 10 uM by Kinomescan method relative to control
# [6] = target: Mast/stem cell growth factor receptor Kit (Homo sapiens) (UniProt P10721); test: Binding affinity to wild-type human partial length autoinhibited KIT (Y545 to D952 residues) expressed in mammalian expression system assessed as residual binding level at 10 uM by Kinomescan method relative to control
# [7] = target: LIM domain kinase 2 (Homo sapiens) (UniProt P53671); test: Binding affinity to wild-type human full length LIMK2 (M1 to P638 residues) expressed in bacterial expression system assessed as residual binding level at 10 uM by Kinomescan method relative to control
# [8] = target: Tyrosine-protein kinase Lyn (Homo sapiens) (UniProt P07948); test: Binding affinity to wild-type human partial length LYN (C219 to Q511 residues) expressed in bacterial expression system assessed as residual binding level at 10 uM by Kinomescan method relative to control
# [9] = target: Serine/threonine-protein kinase MRCK beta (Homo sapiens) (UniProt Q9Y5S2); test: Binding affinity to wild-type human partial length MRCKB (L56 to S417 residues) expressed in bacterial expression system assessed as residual binding level at 10 uM by Kinomescan method relative to control
# [10] = target: Serine/threonine-protein kinase mTOR (Homo sapiens) (UniProt P42345); test: Binding affinity to wild-type human partial length MTOR (L1382 to W2549 residues) expressed in mammalian expression system assessed as residual binding level at 10 uM by Kinomescan method relative to control
# [11] = target: Mitogen-activated protein kinase kinase kinase 14 (Homo sapiens) (UniProt Q99558); test: Binding affinity to wild-type human partial length NIK (L318 to P947 residues) expressed in mammalian expression system assessed as residual binding level at 10 uM by Kinomescan method relative to control
# [12] = test system: Phosphatidylinositol 4,5-bisphosphate 3-kinase catalytic subunit alpha isoform (Homo sapiens), P42336 [I800L]; test: Binding affinity to human partial length PIK3CA I800L mutant (R108 to N1068 residues) expressed in mammalian expression system assessed as residual binding level at 10 uM by Kinomescan method relative to control
# [13] = target: Serine/threonine-protein kinase D2 (Homo sapiens) (UniProt Q9BZL6); test: Binding affinity to wild-type human partial length PRKD2 (A519 to E838 residues) expressed in bacterial expression system assessed as residual binding level at 10 uM by Kinomescan method relative to control
# [14] = target: Serine/threonine-protein kinase PRP4 homolog (Homo sapiens) (UniProt Q13523); test: Binding affinity to wild-type human partial length PRP4 (D657 to I1007 residues) expressed in bacterial expression system assessed as residual binding level at 10 uM by Kinomescan method relative to control
# [15] = target: Ribosomal protein S6 kinase alpha-5 (Homo sapiens) (UniProt O75582); test: Binding affinity to wild-type human partial length C-terminal RPS6KA5 kinase domain 2 (V390 to T718 residues) expressed in bacterial expression system assessed as residual binding level at 10 uM by Kinomescan method relative to control
# [16] = target: Ribosomal protein S6 kinase beta-1 (Homo sapiens) (UniProt P23443); test: Binding affinity to wild-type human partial length S6K1 (M1 to S421 residues) expressed in mammalian expression system assessed as residual binding level at 10 uM by Kinomescan method relative to control
# [17] = target: SNF-related serine/threonine-protein kinase (Homo sapiens) (UniProt Q9NRH2); test: Binding affinity to wild-type human partial length SNRK (M1 to E339 residues) expressed in mammalian expression system assessed as residual binding level at 10 uM by Kinomescan method relative to control
# [18] = target: Serine/threonine-protein kinase 36 (Homo sapiens) (UniProt Q9NRP7); test: Binding affinity to wild-type human partial length STK36 (M1 to T271 residues) expressed in bacterial expression system assessed as residual binding level at 10 uM by Kinomescan method relative to control
# [19] = target: TRAF2 and NCK-interacting protein kinase (Homo sapiens) (UniProt Q9UKE5); test: Binding affinity to wild-type human partial length TNIK (D4 to K311 residues) expressed in bacterial expression system assessed as residual binding level at 10 uM by Kinomescan method relative to control
# [20] = target: Transient receptor potential cation channel subfamily M member 6 (Homo sapiens) (UniProt Q9BX84); test: Binding affinity to wild-type human partial length TRPM6 (Q1723 to I1998 residues) expressed in mammalian expression system assessed as residual binding level at 10 uM by Kinomescan method relative to control
# [21] = target: Serine/threonine-protein kinase 25 (Homo sapiens) (UniProt O00506); test: Binding affinity to wild-type human partial length YSK1 (V14 to H295 residues) expressed in bacterial expression system assessed as residual binding level at 10 uM by Kinomescan method relative to control
# HL-60 = test: Cytoprotection against human HL60 cells assessed as inhibition of H2O2-induced cell death pretreated for 1 hr followed by H2O2 stimulation measured after 3 hrs by p-iodonitrotetrazolium violet dye based LDH assay; type: functional
# [22] = Stability of compound in D2O at 0.012 mmol followed by TBHP addition measured after 24 hrs by 1H-NMR spectroscopy; type: physicochemical
# [23] = target: Mitogen-activated protein kinase kinase kinase 12 (DLK) (Homo sapiens) (UniProt Q12852); test: Binding affinity to wild-type human full length DLK (M1 to P859 residues) expressed in mammalian expression system assessed as residual binding level at 10 uM by Kinomescan method relative to control
# Sequence of Serine/threonine-protein kinase 25 (Homo sapiens) (O00506 whole entry, looked up, the tested form may be a part): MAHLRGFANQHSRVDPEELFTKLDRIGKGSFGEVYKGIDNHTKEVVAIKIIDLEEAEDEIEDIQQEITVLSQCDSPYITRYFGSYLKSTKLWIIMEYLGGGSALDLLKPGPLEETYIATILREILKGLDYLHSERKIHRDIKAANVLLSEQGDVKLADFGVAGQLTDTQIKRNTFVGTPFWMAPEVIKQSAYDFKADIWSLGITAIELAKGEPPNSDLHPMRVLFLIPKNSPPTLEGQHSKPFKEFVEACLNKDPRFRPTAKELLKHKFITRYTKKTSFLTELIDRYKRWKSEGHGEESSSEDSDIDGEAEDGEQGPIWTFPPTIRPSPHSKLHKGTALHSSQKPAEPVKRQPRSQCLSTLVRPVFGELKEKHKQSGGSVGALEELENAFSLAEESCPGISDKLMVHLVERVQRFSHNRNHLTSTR
# Sequence of Serine/threonine-protein kinase MRCK beta (Homo sapiens) (Q9Y5S2 whole entry, the tested form may be a part): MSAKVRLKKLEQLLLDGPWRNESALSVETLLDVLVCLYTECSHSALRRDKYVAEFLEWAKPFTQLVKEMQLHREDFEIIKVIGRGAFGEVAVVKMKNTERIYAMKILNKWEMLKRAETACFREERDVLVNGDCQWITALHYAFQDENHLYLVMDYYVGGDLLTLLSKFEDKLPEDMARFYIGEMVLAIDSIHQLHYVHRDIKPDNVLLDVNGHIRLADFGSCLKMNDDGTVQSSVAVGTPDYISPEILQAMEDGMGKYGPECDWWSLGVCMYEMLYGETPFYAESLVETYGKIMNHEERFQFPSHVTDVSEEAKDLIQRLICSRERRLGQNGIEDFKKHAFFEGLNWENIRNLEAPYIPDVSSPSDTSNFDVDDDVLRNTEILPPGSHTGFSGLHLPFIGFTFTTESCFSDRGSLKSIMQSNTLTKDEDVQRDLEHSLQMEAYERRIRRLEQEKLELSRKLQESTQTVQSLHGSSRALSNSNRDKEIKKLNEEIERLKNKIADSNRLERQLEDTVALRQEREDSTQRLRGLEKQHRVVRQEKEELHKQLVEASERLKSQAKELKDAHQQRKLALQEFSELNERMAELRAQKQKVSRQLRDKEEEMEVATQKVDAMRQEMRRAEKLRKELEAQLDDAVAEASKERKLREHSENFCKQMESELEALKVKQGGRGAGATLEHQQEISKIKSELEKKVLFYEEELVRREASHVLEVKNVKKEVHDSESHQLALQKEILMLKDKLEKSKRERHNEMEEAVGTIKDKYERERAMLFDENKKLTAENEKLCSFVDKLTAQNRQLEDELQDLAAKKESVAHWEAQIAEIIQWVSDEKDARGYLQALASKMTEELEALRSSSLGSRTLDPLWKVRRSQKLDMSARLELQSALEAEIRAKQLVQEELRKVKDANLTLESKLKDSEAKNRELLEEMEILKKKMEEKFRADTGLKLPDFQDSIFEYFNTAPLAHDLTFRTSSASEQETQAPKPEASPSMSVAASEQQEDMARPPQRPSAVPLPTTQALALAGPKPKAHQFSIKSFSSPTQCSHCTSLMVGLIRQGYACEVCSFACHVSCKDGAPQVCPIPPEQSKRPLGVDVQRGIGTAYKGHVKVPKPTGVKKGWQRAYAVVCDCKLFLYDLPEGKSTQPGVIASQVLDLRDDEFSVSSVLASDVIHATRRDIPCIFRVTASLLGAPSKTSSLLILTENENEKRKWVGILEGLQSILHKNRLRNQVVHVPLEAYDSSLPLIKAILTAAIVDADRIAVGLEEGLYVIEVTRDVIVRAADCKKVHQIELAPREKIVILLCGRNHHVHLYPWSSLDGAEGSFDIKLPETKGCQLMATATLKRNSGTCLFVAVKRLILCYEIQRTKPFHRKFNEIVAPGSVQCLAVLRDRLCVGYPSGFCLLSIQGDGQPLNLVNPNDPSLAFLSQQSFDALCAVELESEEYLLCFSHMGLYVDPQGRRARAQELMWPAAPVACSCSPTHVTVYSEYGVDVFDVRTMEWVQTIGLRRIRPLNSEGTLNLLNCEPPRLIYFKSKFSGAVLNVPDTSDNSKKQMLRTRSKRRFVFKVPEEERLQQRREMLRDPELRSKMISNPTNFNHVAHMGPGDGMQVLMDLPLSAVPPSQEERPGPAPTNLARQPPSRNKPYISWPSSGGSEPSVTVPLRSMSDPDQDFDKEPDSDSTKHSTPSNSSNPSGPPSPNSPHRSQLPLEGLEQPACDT
# Sequence of Receptor tyrosine-protein kinase erbB-4 (Homo sapiens) (Q15303 whole entry, the tested form may be a part): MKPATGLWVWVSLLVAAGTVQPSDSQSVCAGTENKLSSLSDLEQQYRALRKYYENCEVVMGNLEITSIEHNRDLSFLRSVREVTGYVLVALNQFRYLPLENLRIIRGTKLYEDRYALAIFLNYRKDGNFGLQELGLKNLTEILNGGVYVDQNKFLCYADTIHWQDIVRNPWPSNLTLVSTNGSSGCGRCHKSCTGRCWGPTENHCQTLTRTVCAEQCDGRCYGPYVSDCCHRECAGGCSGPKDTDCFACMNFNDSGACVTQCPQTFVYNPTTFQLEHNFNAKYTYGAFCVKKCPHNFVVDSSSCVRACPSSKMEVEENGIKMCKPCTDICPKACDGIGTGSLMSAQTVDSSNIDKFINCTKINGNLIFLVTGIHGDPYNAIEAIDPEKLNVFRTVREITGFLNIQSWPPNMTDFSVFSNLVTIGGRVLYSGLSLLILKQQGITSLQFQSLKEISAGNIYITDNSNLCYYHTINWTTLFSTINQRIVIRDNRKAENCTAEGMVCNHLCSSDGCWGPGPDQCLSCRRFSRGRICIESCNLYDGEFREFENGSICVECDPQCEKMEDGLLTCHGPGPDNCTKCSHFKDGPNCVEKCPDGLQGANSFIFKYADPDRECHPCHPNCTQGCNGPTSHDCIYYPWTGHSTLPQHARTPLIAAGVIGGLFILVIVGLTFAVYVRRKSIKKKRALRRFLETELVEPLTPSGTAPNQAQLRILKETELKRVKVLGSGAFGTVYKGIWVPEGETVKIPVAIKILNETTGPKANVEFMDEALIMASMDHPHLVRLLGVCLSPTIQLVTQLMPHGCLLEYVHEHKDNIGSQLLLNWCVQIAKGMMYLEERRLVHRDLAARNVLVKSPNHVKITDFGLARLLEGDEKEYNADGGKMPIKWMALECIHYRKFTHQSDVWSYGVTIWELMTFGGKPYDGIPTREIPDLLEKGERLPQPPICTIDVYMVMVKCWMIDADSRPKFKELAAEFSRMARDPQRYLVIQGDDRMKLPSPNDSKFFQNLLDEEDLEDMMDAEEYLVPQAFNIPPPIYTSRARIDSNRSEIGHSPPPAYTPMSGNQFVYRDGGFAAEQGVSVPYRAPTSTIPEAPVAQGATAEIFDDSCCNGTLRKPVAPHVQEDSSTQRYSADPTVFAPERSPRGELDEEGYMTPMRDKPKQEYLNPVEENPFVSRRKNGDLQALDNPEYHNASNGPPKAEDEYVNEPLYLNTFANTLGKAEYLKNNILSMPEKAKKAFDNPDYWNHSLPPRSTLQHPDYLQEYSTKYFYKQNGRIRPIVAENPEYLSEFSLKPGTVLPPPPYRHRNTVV
# Sequence of Ephrin type-A receptor 5 (Homo sapiens) (P54756 whole entry, the tested form may be a part): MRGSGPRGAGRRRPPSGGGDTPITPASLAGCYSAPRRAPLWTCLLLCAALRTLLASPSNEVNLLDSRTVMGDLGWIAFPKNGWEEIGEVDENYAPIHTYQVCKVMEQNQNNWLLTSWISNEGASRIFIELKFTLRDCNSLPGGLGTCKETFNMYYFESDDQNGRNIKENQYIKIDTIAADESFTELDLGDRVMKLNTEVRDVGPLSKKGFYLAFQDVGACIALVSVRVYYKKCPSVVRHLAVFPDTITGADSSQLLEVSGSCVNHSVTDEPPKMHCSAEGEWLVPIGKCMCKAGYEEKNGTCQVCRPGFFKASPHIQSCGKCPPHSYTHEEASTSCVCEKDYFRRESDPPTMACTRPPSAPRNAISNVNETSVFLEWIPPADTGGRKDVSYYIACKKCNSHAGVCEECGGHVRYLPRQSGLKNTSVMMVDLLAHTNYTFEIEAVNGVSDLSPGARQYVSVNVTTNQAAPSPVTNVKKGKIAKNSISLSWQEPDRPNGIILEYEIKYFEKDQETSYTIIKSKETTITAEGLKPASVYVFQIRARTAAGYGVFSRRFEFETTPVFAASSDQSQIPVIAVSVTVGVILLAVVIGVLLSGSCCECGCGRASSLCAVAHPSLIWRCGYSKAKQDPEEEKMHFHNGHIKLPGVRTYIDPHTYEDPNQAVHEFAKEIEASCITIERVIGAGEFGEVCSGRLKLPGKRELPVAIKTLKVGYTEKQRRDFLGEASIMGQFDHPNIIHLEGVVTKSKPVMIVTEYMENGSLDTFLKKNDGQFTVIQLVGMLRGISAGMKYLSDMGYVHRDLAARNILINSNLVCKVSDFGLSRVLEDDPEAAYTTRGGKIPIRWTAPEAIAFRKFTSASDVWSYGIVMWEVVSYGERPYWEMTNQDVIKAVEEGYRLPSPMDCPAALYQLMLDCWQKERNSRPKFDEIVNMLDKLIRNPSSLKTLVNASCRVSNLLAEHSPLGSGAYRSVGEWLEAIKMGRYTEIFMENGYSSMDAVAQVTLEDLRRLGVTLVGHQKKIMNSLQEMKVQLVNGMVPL
# Sequence of LIM domain kinase 2 (Homo sapiens) (P53671 whole entry, looked up, the tested form may be a part): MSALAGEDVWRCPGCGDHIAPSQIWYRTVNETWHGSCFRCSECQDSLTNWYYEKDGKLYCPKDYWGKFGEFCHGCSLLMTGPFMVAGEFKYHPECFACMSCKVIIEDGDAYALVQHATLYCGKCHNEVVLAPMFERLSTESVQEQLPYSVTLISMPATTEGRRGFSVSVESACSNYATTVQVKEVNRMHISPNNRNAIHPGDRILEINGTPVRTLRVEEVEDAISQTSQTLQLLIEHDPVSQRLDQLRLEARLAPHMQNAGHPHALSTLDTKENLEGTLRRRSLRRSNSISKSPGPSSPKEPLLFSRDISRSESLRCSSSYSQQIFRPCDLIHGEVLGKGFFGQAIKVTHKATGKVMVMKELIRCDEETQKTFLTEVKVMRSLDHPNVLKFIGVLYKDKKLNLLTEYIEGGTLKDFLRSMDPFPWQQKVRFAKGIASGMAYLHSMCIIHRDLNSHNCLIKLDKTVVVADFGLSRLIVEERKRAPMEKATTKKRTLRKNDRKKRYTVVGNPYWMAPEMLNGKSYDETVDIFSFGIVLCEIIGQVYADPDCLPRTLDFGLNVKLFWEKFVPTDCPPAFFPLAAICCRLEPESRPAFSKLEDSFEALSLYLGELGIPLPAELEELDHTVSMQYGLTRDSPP
compound,measurement,setting,value
CC(C)N1C(=O)C(NCCCN(C)C)=C(c2cn(C)c3ccccc23)C1=O.Cl,Activity,[1],89%
same,Activity,[2],96%
same,Activity,[3],100%
same,Activity,[4],100%
same,Activity,[5],83%
same,Activity,[6],66%
same,Activity,[7],93%
same,Activity,[8],98%
same,Activity,[9],85%
same,Activity,[10],87%
same,Activity,[11],93%
same,Activity,[12],92%
same,Activity,[13],93%
same,Activity,[14],86%
same,Activity,[15],96%
same,Activity,[16],77%
same,Activity,[17],91%
same,Activity,[18],98%
same,Activity,[19],100%
same,Activity,[20],97%
same,Activity,[21],94%
same,IC50,HL-60,450 nM
same,Stability,[22],Stable
same,Activity,[23],99%

# From ChEMBL document CHEMBL4304811, “Development of a Water-Soluble Indolylmaleimide Derivative IM-93 Showing Dual Inhibition of Ferroptosis and NETosis” (ACS Med Chem Lett, 2019)
